Experimental data from the Kinase Knowledgebase extract (Sharma et al. 2016).

Molecular target: MAPK14 (human) (UniProt Q16539)
Assay: Inhibtion of MAPK14 Kinase Activity

Chain of MAPK14 (human) (Q16539 whole entry, looked up): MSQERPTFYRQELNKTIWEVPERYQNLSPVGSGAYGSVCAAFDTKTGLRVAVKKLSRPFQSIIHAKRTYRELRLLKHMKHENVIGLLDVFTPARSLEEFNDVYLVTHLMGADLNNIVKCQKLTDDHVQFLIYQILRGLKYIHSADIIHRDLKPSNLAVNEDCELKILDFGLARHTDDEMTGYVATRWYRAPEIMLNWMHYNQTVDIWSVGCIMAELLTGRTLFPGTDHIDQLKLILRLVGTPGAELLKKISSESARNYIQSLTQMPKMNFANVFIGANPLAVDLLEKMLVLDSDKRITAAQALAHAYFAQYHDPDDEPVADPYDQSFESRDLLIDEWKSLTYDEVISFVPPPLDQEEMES

SMILES	IC50 [nM]
NCC[C@H](NCCCOc1cc(F)c(-n2c(N)c(C(=O)c3ccc(F)cc3F)ccc2=O)c(F)c1)C(=O)OC1CCCC1	< 100
CC(C)C[C@H](NCCCOc1cc(F)c(-n2c(N)c(C(=O)c3ccc(F)cc3)ccc2=O)c(F)c1)C(=O)O	< 100
Nc1c(C(=O)c2ccc(F)cc2F)ccc(=O)n1-c1c(F)cc(OCCCN[C@H](C(=O)OC2CCCC2)c2ccccc2)cc1F	< 100
Cc1cc(C(=O)c2ccc(=O)n(-c3ccc(CN[C@@H](Cc4ccccc4)C(=O)O)cc3)c2N)ccc1F	< 100
Nc1c(C(=O)c2ccc(F)cc2F)ccc(=O)n1-c1c(F)cc(OCCCN[C@@H](C(=O)OC2CCCC2)c2ccccc2)cc1F	< 100
Nc1c(C(=O)c2ccc(F)cc2)ccc(=O)n1-c1ccc(OCCCN[C@H](C(=O)OC2CCCC2)c2ccccc2)cc1	< 100
Cc1cc(C(=O)c2ccc(=O)n(-c3ccc(OCCCN[C@@H](Cc4ccccc4)C(=O)OC4CCCC4)cc3)c2N)ccc1F	< 100
CC(C)C[C@H](NCCCOc1cc(F)c(-n2c(N)c(C(=O)c3ccc(F)cc3F)ccc2=O)c(F)c1)C(=O)OC1CCCC1	< 100
Nc1c(C(=O)c2ccc(F)cc2)ccc(=O)n1-c1c(F)cc(OCCCN[C@H](C(=O)O)c2ccccc2)cc1F	< 100
CC(C)C[C@H](NCCCOc1ccc(-n2c(N)c(C(=O)c3ccc(F)cc3)ccc2=O)cc1)C(=O)OC1CCCC1	< 100
Nc1c(C(=O)c2ccc(F)cc2F)ccc(=O)n1-c1c(F)cc(OCCCN[C@@H](Cc2ccccc2)C(=O)OC2CCCC2)cc1F	< 100
CC(C)C[C@H](NCc1cc(F)c(-n2c(N)c(C(=O)c3ccc(F)cc3F)ccc2=O)c(F)c1)C(=O)OC1CCCC1	< 100
CC(C)C[C@H](NCc1ccc(-n2c(N)c(C(=O)c3ccc(F)cc3F)ccc2=O)cc1)C(=O)OC1CCCC1	< 100
CC(C)C[C@H](NCCCCCOc1cc(F)c(-n2c(N)c(C(=O)c3ccc(F)cc3F)ccc2=O)c(F)c1)C(=O)OC1CCCC1	< 100
Nc1c(C(=O)c2ccc(F)cc2F)ccc(=O)n1-c1c(F)cc(OCCCN[C@@H](Cc2ccccc2)C(=O)O)cc1F	< 100
Cc1cc(C(=O)c2ccc(=O)n(-c3c(F)cc(OCCCN[C@@H](Cc4ccccc4)C(=O)O)cc3F)c2N)ccc1F	< 100
CC(C)C[C@H](NCCCOc1cc(F)c(-n2c(N)c(C(=O)c3ccc(F)cc3)ccc2=O)c(F)c1)C(=O)OC1CCCC1	< 100
Cc1cc(C(=O)c2ccc(=O)n(-c3c(F)cc(OCCCN[C@H](C(=O)OC4CCCC4)c4ccccc4)cc3F)c2N)ccc1F	< 100
CC(C)C[C@H](NCCCOc1cc(F)c(-n2c(N)c(C(=O)c3ccc(F)cc3F)ccc2=O)c(F)c1)C(=O)O	< 100

SMILES	IC50 [nM]
Nc1c(C(=O)c2ccc(F)cc2F)ccc(=O)n1-c1ccc(CN[C@@H](Cc2ccccc2)C(=O)O)cc1	< 100
CC(C)C[C@H](NCCCCCOc1cc(F)c(-n2c(N)c(C(=O)c3ccc(F)cc3F)ccc2=O)c(F)c1)C(=O)O	< 100
CC(C)C[C@H](NCc1ccc(-n2c(N)c(C(=O)c3ccc(F)cc3F)ccc2=O)cc1)C(=O)O	< 100
Nc1c(C(=O)c2ccc(F)cc2F)ccc(=O)n1-c1ccc(OCCCN[C@@H](Cc2ccccc2)C(=O)OC2CCCC2)cc1	< 100
Cc1cc(C(=O)c2ccc(=O)n(-c3c(F)cc(OCCCN[C@H](C(=O)O)c4ccccc4)cc3F)c2N)ccc1F	< 100
Nc1c(C(=O)c2ccc(F)cc2)ccc(=O)n1-c1ccc(OCCCN[C@H](C(=O)O)c2ccccc2)cc1	< 100
Nc1c(C(=O)c2ccc(F)cc2F)ccc(=O)n1-c1c(F)cc(OCCCN[C@H](C(=O)O)c2ccccc2)cc1F	< 100
CC(C)(C)OC(=O)[C@@H](NCCCOc1cc(F)c(-n2c(N)c(C(=O)c3ccc(F)cc3)ccc2=O)c(F)c1)c1ccccc1	< 100
CC(C)(C)OC(=O)[C@H](Cc1ccccc1)NCCCOc1cc(F)c(-n2c(N)c(C(=O)c3ccc(F)cc3F)ccc2=O)c(F)c1	< 100
Cc1cc(C(=O)c2ccc(=O)n(-c3ccc(OCCCN[C@H](C(=O)OC4CCCC4)c4ccccc4)cc3)c2N)ccc1F	< 100
CC(C)C[C@@H](NCCCOc1cc(F)c(-n2c(N)c(C(=O)c3ccc(F)cc3F)ccc2=O)c(F)c1)C(=O)OC1CCCC1	< 100
Nc1c(C(=O)c2ccc(F)cc2)ccc(=O)n1-c1c(F)cc(CN[C@@H](Cc2ccccc2)C(=O)O)cc1F	< 100
Nc1c(C(=O)c2ccc(F)cc2)ccc(=O)n1-c1c(F)cc(OC2CCC(N[C@H](C(=O)O)c3ccccc3)CC2)cc1F (some centres not stated)	< 100
Nc1c(C(=O)c2ccc(F)cc2)ccc(=O)n1-c1ccc(OCCCN[C@@H](Cc2ccccc2)C(=O)O)cc1	< 100
CC(C)C[C@H](NCCCOc1ccc(-n2c(N)c(C(=O)c3ccc(F)cc3F)ccc2=O)cc1)C(=O)OC(C)(C)C	< 100
CC(C)C[C@H](NCCCCCOc1cc(F)c(-n2c(N)c(C(=O)c3ccc(F)cc3)ccc2=O)c(F)c1)C(=O)O	< 100
CC(C)C[C@@H](NCCCOc1cc(F)c(-n2c(N)c(C(=O)c3ccc(F)cc3F)ccc2=O)c(F)c1)C(=O)OC(C)(C)C	< 100
CC(C)C[C@H](NCCc1ccc(-n2c(N)c(C(=O)c3ccc(F)cc3F)ccc2=O)cc1)C(=O)O	< 100
